Data: patent publication US8163805B2, “Small molecule antagonists of Bcl-2 family proteins” (The Regents of the University of Michigan, priority 2001, dated 2012)
pIC50: −log10 of the molar value. Several values for one entry are separate records, joined by “and”; a condition that tells them apart may be missing. Equal entries are not always repeated. Where two headings read alike, the source gives them in different places.

Legend:
Bcl-2 = molecular target: T1, Bcl-2 (Homo sapiens, UniProt P10415); assay: FP binding assay, Flu-Bad-25 peptide and GST-fusion Bcl-2 (FIG. 4, 45); conditions: FIG. 4
T1 construct: purchased Santa Cruz Biotechnology

UM-SCC-22A = assay: 6-day MTT cell growth, UM-SCC-22A; type: cell-based, human; conditions: read-out: IC50, inhibition of cell growth
Experimental: (§1) UM-SCC and human fibroblast cell lines were continuously exposed to varying concentrations of (−)-gossypol in 6-day MTT cell survival assays. Control wells contained media (DMEM) with vehicle alone. For each data point n=5.
(§2) Ten squamous cell carcinoma cell lines established at the University of Michigan (UM-SCC) and three human fibroblast lines were grown in Dulbecco's modified Eagle's medium (DMEM) supplemented with 10% fetal bovine serum. UM-SCC cell lines originated from the larynx (n=2; UM-SCC-12, -23), oral cavity/oropharynx (n=5; UM-SCC-1, -6, -14A, -74B, -81B), hypopharynx (n=1; UM-SCC-22A) and metastases from laryngeal cancers (n=2; UM-SCC-17B, -25). Human fibroblast cell lines originated from surgical specimens (fibroblast cell lines 2 and 3) and neonatal foreskin samples (fibroblast cell line 1).
(§3) Logarithmically growing cell lines were cultured, washed, counted, and plated at 5,000-15,000 cells per well in duplicate wells of 96-well plates and incubated in DMEM overnight. […] The MTT assay measures cell survival based on mitochondrial conversion of MTT from a soluble tetrazolium salt into an insoluble colored formazan precipitate, which is dissolved in dimethyl sulfoxide and quantitated by spectrophotometry. […] Percent absorbance relative to control was plotted as a linear function of drug concentration.

UM-SCC-17B = assay: 6-day MTT cell growth, UM-SCC-17B; type: cell-based, human; conditions: read-out: IC50, inhibition of cell growth
Experimental: as §1, §2, §3

UM-SCC-1 = assay: Flow cytometric TUNEL apoptosis assay, UM-SCC-1; type: cell-based, human; conditions: 10 μM, 48-hour
Experimental: (§4) Briefly, FIGS. 24A-24C show apoptosis after (−)-gossypol as measured by a fluorescent flow cytometric TUNEL assay. Open peaks represent BrdU labeling of untreated cells. Shaded peaks indicate BrdU labeling of cell populations following 48-hour treatment with 10 μM (−)-gossypol; FIG. 24A, UM-SCC-cell lines with wild type p53; FIG. 24B, UM-SCC-cell lines with mutant p53; and FIG. 24C normal fibroblast cells.
(§5) Apoptosis of UM-SCC cell lines following (−)-gossypol treatment was quantitatively detected by enzymatic labeling of DNA strand breaks using terminal deoxynucleotidyltransferase (TdT) and Alexa Fluor-BrdUTP, known as the TdT-UTP nick end-labeling (TUNEL) assay by flow cytometry. Cells were exposed to (−)-gossypol for 48 hours, harvested, fixed and TUNEL stained according to the manufacturer's protocol (Molecular Probes Inc., Eugene, Oreg.). Ten thousand cells were analyzed per sample using excitation of Alexa Fluor at 488 nm. Apoptotic index (AI) was defined as percent of apoptotic cells in the treatment population minus that in the vehicle control population.

UM-SCC-12 = assay: Flow cytometric TUNEL apoptosis assay, UM-SCC-12; type: cell-based, human; conditions: 10 μM, 48-hour
Experimental: as §4, §5

UM-SCC cell lines = assay: Flow cytometric TUNEL apoptosis assay, UM-SCC cell lines grouped by p53 status; type: cell-based, human; conditions: 48-hour
DU145 = assay: MTT-based 5-day cell proliferation, DU145; conditions: DU145, FIG. 42
Text: (§6) The present invention is not limited to any mechanism. Indeed, a mechanistic understanding of the invention is unnecessary to practice (make and use) the present compositions and methods.

[1] = tested on: PC-3 prostate cancer cell line; assay: Annexin V-FITC/PI apoptosis with TXT or CDDP, PC-3; type: cell-based, human; conditions: PC-3, 48 hrs
Text: as §6

[2] = tested on: androgen-independent prostate PC-3 xenograft; assay: PC-3 xenograft, (−)-gossypol and radiation (Example 20); type: in vivo, nude mice
Experimental: In this experiment, 60 male 5 to 6 week old NCI athymic NCr-nu/nu nude mice were inoculated in each flank with an injection of about 5×10^6 PC-3 cells. The best 40 xenograft recipients were used. Tumors averaged about 70 mm^3. (−)-Gossypol compounds were first dissolved in ethanol and diluted with sterile water within 5 min to a final ethanol concentration of 10% prior to each administration. Irradiated test animals were restrained, placed under the X-ray head, and covered with lead shields to ensure that the tumor area was exposed to radiation. All oral administrations of (−)-gossypol and 10% alcohol were given by gavage.
The 40 best xenograft mice were divided into experimental groups as follows: radiation only (Groups 1 and 2), 2 Gy administered 5 times/week for 3 weeks, and daily oral administration of 10% alcohol (as vehicle control); radiation plus gossypol (Groups 3 and 4), 2 Gy administered 5 times a week for 3 weeks, and 10 mg/kg of (−)-gossypol administered orally 5 times/week for 4 weeks (8 mice each Group); gossypol only (Groups 5 and 6), 10 mg/kg (−)-gossypol administered orally every day for 4 weeks (8 mice each Group); vehicle control (Groups 7 and 8), daily oral administration of 10% alcohol (8 mice each Group as vehicle control); large tumor animals (combination of Groups 9-12), tumors allowed to reach 500 mm^3.
Other remaining tumors in this group appear pale yellowish and soft as compared with that in control group with hard solid and reddish appearance, indicating tumor blood supply was inhibited.

[3] = tested on: human breast cancer MDA-MB-231 (2LMP) xenograft; conditions: Table 8
[4] = tested on: androgen independent prostate cancer PC-3 xenograft; assay: PC-3 xenograft, (−)-gossypol alone and with docetaxel (Example 22); conditions: for complete tumor regression, number of mice: combination of (−)-gossypol with docetaxel
[5] = Table 17 (content identical to Table 18)
[6] = Table 18, PC-3 xenograft, (−)-gossypol 10 mg/kg orally for 4 weeks, radiation 2 Gy 5 times/week
[7] = (−)-gossypol 7.5 mg/kg p.o. daily 4 weeks, docetaxel 7.5 mg/kg once a week 3 weeks

T1 sequence (P10415 1-205 limits assumed): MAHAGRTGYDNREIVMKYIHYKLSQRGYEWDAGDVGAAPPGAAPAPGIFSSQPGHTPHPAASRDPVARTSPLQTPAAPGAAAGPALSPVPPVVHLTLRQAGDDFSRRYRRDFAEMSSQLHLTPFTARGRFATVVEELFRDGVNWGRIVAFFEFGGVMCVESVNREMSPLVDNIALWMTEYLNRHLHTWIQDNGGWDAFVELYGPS

SMILES: Cc1cc2c(C(C)C)c(O)c(O)c(C=O)c2c(O)c1-c1c(C)cc2c(C(C)C)c(O)c(O)c(C=O)c2c1O [(−)-gossypol]
- inhibition of binding between Bid BH3 peptide and Bcl-2 (Bcl-2): directly inhibit binding between Bid BH3 peptide and Bcl-2
- pIC50 (UM-SCC-22A): 5.52
- pIC50 (UM-SCC-17B): 5.30
- apoptotic index (AI) (UM-SCC-1): 90.1%
- apoptotic index (AI) (UM-SCC-12): 27.2%
- mean apoptotic index (UM-SCC cell lines; two cell lines with mutant p53, 10 μM): 20.7%±9.3
- mean apoptotic index (AI) (UM-SCC cell lines; two wild-type p53 tumor cell lines, 10 μM): 85.2%±6.9
- cytotoxicity (DU145): very limited effect
- effect on activity of docetaxel and cisplatin [1]: enhanced the activities of docetaxel and cisplatin (CDDP) in inhibiting cell growth and inducing apoptosis
- tumors with complete regression ([2]; (−)-gossypol 10 mg/kg p.o. q.d.×5 4 weeks + X-ray 2 Gy q.d.×5 3 weeks): At least 10 out of 16
- tumor growth inhibition compared with vehicle control, day 37 ([2]; Table 15, (−)-gossypol 10 mg/kg p.o. in combination with radiation 2 Gy per day, total 30 Gy): achieved 91.5% tumor growth
- complete tumor regression, number of tumors ([2]; Table 15, combination of (−)-gossypol with radiation, out of 16 tumors): regression in 10 out of 16 tumors in
- tumor growth inhibition ([3]; (−)-gossypol 7.5 mg/kg p.o. in combination with docetaxel 7.5 mg/kg i.v., p < 0.01): there was more than 90% tumor
- tumor growth inhibition ([3]; (−)-gossypol 30 mg/kg p.o. q day for 4 weeks, alone): 30 mg/kg of G-, there was 40%
- anti-tumor effect ([3]; (−)-gossypol 15 or 7.5 mg/kg p.o. alone): did not achieve significant anti-
- tumor growth inhibition ([3]; (−)-gossypol at any of the three doses (7.5, 15, 30 mg/kg p.o.) in combination with docetaxel 7.5 mg/kg i.v.): all achieved significant tumor
- tumor regression, number of mice ([3]; (−)-gossypol in combination with docetaxel, 8 mice per group): There was tumor regression in 3 mice
- inhibition of tumor growth by (−)-gossypol alone ([3]; MDA-231 fat-pad xenografts, Balb/c nude mouse, 7.5, 15 or 30 mg/kg p.o. q day for 4 weeks, alone): There was dose-dependent
- toxicity by bodyweight measurements (PC-3 xenograft; (−)-gossypol 10 mg/kg with or without radiation): no significant toxicity
- antitumor effect (PC-3 xenograft; (−)-gossypol alone, 10 mg/kg oral, 4 weeks): minimal antitumor effect
- tumor growth inhibition compared with vehicle control, day 39 (PC-3 xenograft; Table 14, (−)-gossypol 10 mg/kg p.o. in combination with radiation 2 Gy per day, total 30 Gy): achieved 93% tumor growth
- tumor growth inhibition, day 39 (PC-3 xenograft; Table 14, PC-3 flank xenografts (~150 mm^3 at start), (−)-gossypol 10 mg/kg p.o. 5 times q week for 4 weeks, alone, not significant): regimen (about 20%, P = 0.3 or 0.7,
- Tumor Growth Delay (T − C Days) (PC-3 xenograft; [5]): 0 days
- Tumor Growth Inhibition (T/C %) (PC-3 xenograft; [5]): 98.6%
- Tumor Growth Delay (T − C Days) (PC-3 xenograft; [6]): 0 days
- Tumor Growth Inhibition (T/C %) (PC-3 xenograft; [6]): 98.6%
- Complete tumor regression/Total [4, 7]: 2 out of 12 and 2/12
- Percent regression [4, 7]: 17%
- tumor growth inhibition compared with vehicle control ([4]; Table 9, (−)-gossypol 15 mg/kg p.o. in combination with docetaxel 7.5 mg/kg i.v.): 84% tumor growth inhibition as
- tumor growth inhibition on day 42 ([4]; Table 9, PC-3 flank xenografts (~100 mm^3 at start), NCr-nu nude mouse, 15 mg/kg daily p.o., alone): growth inhibition (52% on day 42,
- complete tumor regression, number of mice ([4]; Table 9, out of 5 mice): complete tumor regression in 3 out mice
- tumor inhibition compared with vehicle control ([4]; Table 10, (−)-gossypol in combination with docetaxel 7.5 mg/kg i.v.): at 7.5 mg/kg achieved 89.9% tumor
- tumor growth inhibition on day 56 compared to vehicle controls ([4]; Table 10, PC-3 flank xenografts (~120 mm^3 at start), NCr-nu nude mouse, daily p.o. for 28 days, alone (racemic 15 mg/kg)): antitumor activity (60% on day 56,
- complete tumor regression, number of mice ([4]; Table 10, out of 8 mice): complete tumor regression in 5 out mice
